Test results: US20100105021A1, “STABILISATION OF BIOLOGICAL CELL MARKERS” (THE UNIVERSITY OF NOTTINGHAM, priority 2007, published 2010)

Tests used:
[1] = tested on: platelet activation marker CD62P (P-selectin) on platelets; test: Flow cytometric analysis of CD62P expression in diluted blood stimulated with a platelet stimulant and then fixed; type: cell-based, human; settings: then fixed; for percentage of gated cells in P3 (% parent), CD62P: gate P3 set at 1% with IgG control, CD61-positive platelets; for median fluorescence of CD62P (P1 AND P2): whole population of CD61 positive cells, IgG control 2
Experimental: The inventors then set out to test the efficacy of the platelet stabilising composition by determining the expression levels of the platelet activation marker, CD62P (ie P-selectin), using flow cytometry.
Initially, an experiment was carried out in order to measure the level of expression of the platelet activation marker, CD62P, by flow cytometry in an IgG control sample. […] Platelets were gated in both P1 (top, centre in FIG. 1) and P2 (top, right in FIG. 1) in plots of a platelet identifier antibody, CD61-PerCP, against both side scatter (SSC) and forward scatter (FSC).
Approximately 3,000 CD61-positive platelet events were recorded. The CD61-positive cells were then drawn on a dot plot of CD62P against SSC (centre of FIG. 1). A frequency histogram of CD62P fluorescence against cell count was then used to quantify the percentage of cells from the parent population that were present in an interval gate P3 (bottom, left of FIG. 1). […] The gate was set at 1% using the appropriate IgG control sample and recorded in the statistics box (bottom right of FIG. 1). The median fluorescence of CD62P was also recorded for the whole population of CD61 positive cells (P1 AND P2).
Flow cytometric analysis was carried out to determine CD62P expression in an unstimulated sample of blood diluted with saline alone and then fixed.
Flow cytometric analysis was carried out to determine CD62P expression in a diluted sample of blood stimulated with adenosine diphosphate (ADP) and then fixed.
Flow cytometric analysis was carried out to determine CD62P expression in a diluted sample of blood stimulated with the thromboxane mimetic U46619 and then fixed.
Flow cytometric analysis was carried out to determine CD62P expression in a diluted sample of blood stimulated with thrombin receptor activating peptide (TRAP) and then fixed.

[2] = tested on: platelet activation marker CD62P; settings: both groups where aspirin was added (healthy volunteers, patients on aspirin)
Experimental: Blood samples were obtained from (a) a group of healthy volunteers who were not being treated with aspirin, and (b) a group of patients who were on aspirin therapy. A CD62P stimulant combination of arachidonic acid and epinephrine, or arachidonic acid and epinephrine, in the presence of aspirin (as a control), were added to each blood sample for 4 minutes, followed by the stabilisation composition of the invention.

Row | Molecule | percentage of gated cells in P3 (% parent), CD62P [1] [%] | median fluorescence of CD62P (P1 AND P2) [1] | inhibition of CD62P expression [2]
1 | Nc1ncnc2c1ncn2[C@@H]1O[C@H](COP(=O)(O)OP(=O)(O)O)[C@@H](O)[C@H]1O [ADP, adenosine diphosphate] | 70.8 | 365 | –
2 | CCCCC[C@H](O)/C=C/[C@@H]1[C@@H](C/C=C\CCCC(=O)O)[C@H]2CO[C@@H]1C2 [U46619] | 95.3 | 1191 | –
3 | CC(=O)Oc1ccccc1C(=O)O [aspirin] | – | – | completely inhibited
4 | thrombin receptor activating peptide [TRAP] | 97.5 | 1646 | –
